Broadly, the EC50 is the concentration giving half of the maximal effect.

Read-outs that look alike come from different tables or passages of the source. No end group written: not given here.

This assay addresses T1, GPR103 C285^6.47A (Homo sapiens, UniProt Q96P65, C285A).
T1 construct: we used human full-length QRFPR-encoding plasmids; expressed in transfected cells; host or cells: HEK293 cells (HEK293A in the flow cytometry section), pCAGGS vector
T1 sequence (Q96P65 1-431 C285A): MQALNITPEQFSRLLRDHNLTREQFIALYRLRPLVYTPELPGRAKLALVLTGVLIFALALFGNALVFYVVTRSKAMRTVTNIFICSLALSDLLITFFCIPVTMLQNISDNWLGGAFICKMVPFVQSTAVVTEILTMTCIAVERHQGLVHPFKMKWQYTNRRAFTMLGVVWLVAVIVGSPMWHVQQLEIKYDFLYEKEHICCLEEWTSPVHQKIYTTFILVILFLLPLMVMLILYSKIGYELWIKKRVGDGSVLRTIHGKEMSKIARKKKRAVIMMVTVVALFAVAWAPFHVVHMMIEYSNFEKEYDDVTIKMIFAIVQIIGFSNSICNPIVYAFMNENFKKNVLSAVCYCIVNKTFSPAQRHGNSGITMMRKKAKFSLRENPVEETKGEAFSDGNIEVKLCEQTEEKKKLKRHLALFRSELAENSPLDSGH
Briefly: TGFα shedding assay; Exp. level WT (1:20). It counts as cell-based. The protocol: For the TGFα shedding assay and the flow cytometry analysis, we used human full-length QRFPR-encoding plasmids. Specifically, GPR103 was N-terminally modified with an HA signal sequence followed by a FLAG epitope and then a flexible linker ([…]; the FLAG epitope is underlined) and inserted into the pCAGGS vector. Plasmid encoding GPR103 mutants were generated using Quickchange Site-Directed Mutagensis kit (Agilent).
The TGFα shedding assay was performed as described previously with minor modifications. Plasmid transfection was performed in a 6-well plate with a mixture of 500 ng (per well in a 6-well plate) AP-TGFα-encoding plasmid and 200 ng GPR103-encoding plasmid. After 1-day culture, the transfected cells were harvested by trypsinization, pelleted by centrifugation at 190 × g for 5 min, and washed once with 5 mM HEPES (pH 7.4)-containing Hank’s Balanced Salt Solution (HBSS). After centrifugation, the cells were resuspended in 8 mL of the HEPES-containing HBSS. The cell suspension was seeded in a 96-well culture plate (cell plate) at a volume of 90 μL (per well hereafter) and incubated in a 37 °C incubator with 5% CO2 for 30 min. […] After spinning the cell plates at 190 × g for 2 min, 80 μL of conditioned media was transferred to an empty 96-well plate (conditioned media (CM) plate). Then, 80 μL of AP reaction solution (10 mM p-nitrophenylphosphate (p-NPP), 120 mM Tris-HCl (pH 9.5), 40 mM NaCl, and 10 mM MgCl2) was dispensed into the cell plates and the CM plates. Absorbance at 405 nm of the plates was measured using a microplate reader (SpectraMax 340 PC384, Molecular Devices) before and after 1-h incubation at room temperature. Ligand-induced AP-TGFα release was calculated by subtracting spontaneous AP-TGFα release signal from ligand-induced AP-TGFα release signal. The AP-TGFα release signals were fitted to a four-parameter sigmoidal concentration–response curve, using the Prism 10 software (GraphPad Prism). For each replicate experiment, the pEC50 parameter (negative logarithmic values of EC50 values) of the individual GPR103 mutants were normalized to that of the wild-type GPR103 performed in parallel, and resulting ∆pEC50 values were used to denote ligand response activity of the mutants. […]
Exp. le vel: WT (1:5 0)Exp. le vel: WT (1:5 0)Exp. le vel: WT (1:5 0)Exp. le vel: WT (1:2 0)Exp. le vel: WT (1:2 0)Exp. le vel: WT (1:1 0) […]
L1 4N - t e r mA F2 5N - t e r mA I 2 6N - t e r mA Y 2 9N - t e r mA C 9 82 .5 7A T10 22 .6 1A Exp . l eve l: WT (1 :5)Exp . l evel : >WT (1 :1)Exp. le vel: WT (1:2 0)Exp. le vel: WT (1:2 0)Exp. le vel: WT (1:5 0)Exp . l eve l: WT (1 :1) […]
Exp. le vel: WT (1:1 0)Exp. le vel: WT (1:2 0) C 1 1 83 .2 5AExp. le vel: WT (1:5 0)Exp. le vel: WT (1:5 0)Exp. le vel: WT (1:2 0)Exp . l eve l: WT (1 :5) […]
Exp. le vel: WT (1:5 0)Exp. le vel: WT (1:1 0)Exp. le vel: WT (1:5 0) E203ECL2AExp . l evel : >WT (1 :1)Exp. le vel: WT (1:5 0)Exp. le vel: WT (1:5 0) […]
Exp . l eve l: WT (1 :1) F28Exp. le vel: WT (1:5 0) C 2 8 56 .4 7AExp. le vel: WT (1:2 0) WExp. le vel: WT (1:2 0) F28Exp. le vel: WT (1:5 0)Exp . l evel : >WT (1 :1) […]
Exp. le vel: WT (1:5 0)Exp. le vel: WT (1:5 0) C 3 2 77 .4 8AExp . l eve l: WT (1 :5)Exp . l evel : >WT (1 :1)Exp . l evel : >WT (1 :1) […]
Suppl eme nt ary Figure 1 | Mutational analysis of GPR103. […]
mutants. Data are presented as mean values ± SEM, normally n=3-5; dots), each performed in triplicate. b-d Cell-surface expression (b) and QRFP26-in-duced activation of GPR103 (c, d) were analyzed by the flow cytometry and the TGFα shedding assay, respectively. From the concentration–response curves (a), Emax (c) and ΔpEC50 (d) values relative to the wild type were calculated. Colors in the mutant bars indicate an expression level matching to that of titrated wild type. Statistical analyses were performed using the ordinary one-way ANOVA followed by Dunnett tests with the expression-matched […]

Take TSGPLGNLAEELNGYSRKKGGFSFRF-NH2 [QRFP26]: the Emax runs as follows: (Exp. #1) 81.15 % WT; (Exp. #2) 80.43 % WT; (Exp. #3) 87.98 % WT; (mean, read-out: Emax) 83.2%; (n = 3, read-out: Emax) 86.7 ± 2%. Where the note is “n = 3”, the concentration giving a half-maximal response (EC50) is 14.1 nM.
